Here are results for 16 compounds from PMC7587356, “High-Throughput Screening for Inhibitors of the SARS-CoV-2 Protease Using a FRET-Biosensor” (Molecules, 2020).

This assay deals with SARS-CoV-2 3CLpro (Severe acute respiratory syndrome coronavirus 2, UniProt P0DTD1). Description: biochemical. In kind it is biochemical. Details: Replicate_1 / Replicate_2 / mean / mean (LOPAC_screen_w_protease): unit not given here. The settings on record: for inhibition at 5 µM: 4 h.
Setting [1] is: LOPAC1280 primary screen with protease, 5 µM compound, mean of two replicates.
Where [2] appears, read: LOPAC1280 primary screen with protease, 5 µM compound, replicate 1.
The mark [3] stands for this setting: LOPAC1280 primary screen with protease, 5 µM compound, replicate 2.
Setting [4] is: sheet LOPAC_screen_w_protease, primary screen with protease, mean of two replicates.
The mark [5] stands for this setting: sheet LOPAC_screen_w_protease, primary screen with protease, replicate 1.
Setting [6] is: sheet LOPAC_screen_w_protease, primary screen with protease, replicate 2.
Setting [7] is: sheet LOPAC_screen_w_protease, LOPAC1280 primary screen at 5 µM, with protease, mean of the two replicates.
Setting [8] is: sheet LOPAC_screen_w_protease, LOPAC1280 primary screen at 5 µM, with protease, replicate 1.
[9] abbreviates: sheet LOPAC_screen_w_protease, LOPAC1280 primary screen at 5 µM, with protease, replicate 2.
The mark [10] stands for this setting: sheet LOPAC_screen_w_protease, primary screen with protease, compound at 5 µM, mean of two replicates.
[11] abbreviates: sheet LOPAC_screen_w_protease, primary screen with protease, compound at 5 µM, replicate 1.
Setting [12] is: sheet LOPAC_screen_w_protease, primary screen with protease, compound at 5 µM, replicate 2.

Molecules are shown by their SMILES. Where two headings read alike, the source gives them in different places.

In the case of `C[C@]12CC[C@@H](O)C[C@@H]1CC[C@@H]1[C@@H]2CC[C@]2(C)[C@@H](O)CC[C@@H]12` [5alpha-Androstane-3alpha,17beta-diol], the “mean (LOPAC_screen_w_protease)” value under setting [1] amounted to 1.678. The “Replicate_1 (LOPAC_screen_w_protease)” value under setting [2] is on record as 0.2579. For the same compound, the “Replicate_2 (LOPAC_screen_w_protease)” value under setting [3] was determined as 3.098.

On to `CC(=O)[C@H]1CC[C@H]2[C@@H]3CC[C@H]4C[C@H](O)CC[C@]4(C)[C@H]3C(=O)C[C@]12C` [5alpha-Pregnan-3alpha-ol-11,20-dione], for which, under setting [4], the mean worked out at 2.341. This compound also displayed a Replicate_1 under setting [5] of 0.8983. For the same compound, the Replicate_2 under setting [6] was determined as 3.784.

Compound `CC(=O)[C@H]1CC[C@H]2[C@@H]3CC[C@H]4C[C@H](O)CC[C@]4(C)[C@H]3CC[C@]12C` [5alpha-Pregnan-3alpha-ol-20-one] gave a mean under setting [7] of 0.7105. The compound also returned a Replicate_1 under setting [8] of 1.221. The compound further returned a Replicate_2 under setting [9] of 0.1995.

`O=c1[nH]c2ccccc2c2ccccc12` [6(5H)-Phenanthridinone] gave a mean under setting [4] of 2.579. In addition, under setting [5], the Replicate_1 amounted to 3.064. Further, the Replicate_2 under setting [6] was found to be 2.0946.

As for `Br.NC1CCc2cc(O)c(O)cc2C1` (stereo not drawn) [6,7-ADTN hydrobromide], under “sheet LOPAC_screen_w_protease, primary screen at 5 µM, mean of two replicates”, the “mean (LOPAC screen with protease)” value is 64.0916. Also, the “Replicate_1 (LOPAC screen with protease)” value (sheet LOPAC_screen_w_protease, primary screen at 5 µM, replicate 1) is given as 63.1732. Besides, the “Replicate_2 (LOPAC screen with protease)” value (sheet LOPAC_screen_w_protease, primary screen at 5 µM, replicate 2) is given as 65.0099.

Turning to `O=c1[nH]c2cc(Cl)c(Cl)cc2[nH]c1=O` [6,7-Dichloroquinoxaline-2,3-dione], the mean (sheet LOPAC_screen_w_protease, LOPAC1280 primary screen with protease, 5 µM compound, mean of the two replicates) is listed as 4.331. Also, the Replicate_1 (sheet LOPAC_screen_w_protease, LOPAC1280 primary screen with protease, 5 µM compound, replicate 1) was found to be 5.455. The Replicate_2 (sheet LOPAC_screen_w_protease, LOPAC1280 primary screen with protease, 5 µM compound, replicate 2) is given as 3.207.

Turning to `NCCCCCC(=O)O` [6-Aminohexanoic acid], the inhibition at 5 µM by setting is: (LOPAC1280 primary screen with protease, 5 µM compound, replicate 1, read-out: Replicate_1 (LOPAC_screen_w_protease)) 2.45%; (LOPAC1280 primary screen with protease, 5 µM compound, replicate 2, read-out: Replicate_2 (LOPAC_screen_w_protease)) 1.78%. Besides, for the setting “LOPAC1280 primary screen with protease, 5 µM compound, mean of the two replicates”, the “mean (LOPAC_screen_w_protease)” value amounted to 2.116.

Take `COc1cc2c(CCNC(C)=O)c[nH]c2cc1Cl` [6-Chloromelatonin]: the “mean (LOPAC_screen_w_protease)” value under setting [1] was determined as 1.65. The “Replicate_1 (LOPAC_screen_w_protease)” value under setting [2] was determined as 0.5069. Further, under setting [3], the “Replicate_2 (LOPAC_screen_w_protease)” value is reported as 2.794.

With `Cl.NCC(O)c1cc(O)c(O)cc1F` (stereo not drawn) [6-Fluoronorepinephrine hydrochloride], under setting [10], the mean is given as 2.749. Further, under setting [11], the Replicate_1 was found to be 2.331. The compound also showed a Replicate_2 under setting [12] of 3.1667.

For `COc1cc2c(CCNC(C)=O)c[nH]c2cc1O` [6-Hydroxymelatonin], under setting [4], the mean stood at 2.302. Under setting [5], this compound returned a Replicate_1 of 3.2941. Under setting [6], this compound returned a Replicate_2 of 1.31.

Under setting [4], `CCCCCCCCCCC/C=C\C(C)(C)/C=C\CCCC(=O)O` [7,7-Dimethyl-(5Z,8Z)-eicosadienoic acid] gave a mean of 2.303. Under setting [5], this compound showed a Replicate_1 of 4.092. Under setting [6], this compound registered a Replicate_2 of 0.5145.

In the case of `O=C(O)c1cc(O)c2ccc(Cl)cc2n1` [7-Chlorokynurenic acid], the inhibition at 5 µM was 3.48% (sheet LOPAC_screen_w_protease, primary screen of LOPAC1280 at 5 µM with protease, mean of the two replicates, read-out: mean); 3.97% (sheet LOPAC_screen_w_protease, primary screen of LOPAC1280 at 5 µM with protease, replicate 1, read-out: Replicate_1); 2.98% (sheet LOPAC_screen_w_protease, primary screen of LOPAC1280 at 5 µM with protease, replicate 2, read-out: Replicate_2).

As for `O=[N+]([O-])c1cccc2cn[nH]c12` [7-Nitroindazole], the inhibition at 5 µM is, setting by setting: (sheet LOPAC_screen_w_protease, primary screen with protease, compound at 5 µM, mean of two replicates, read-out: mean) 3.04%; (sheet LOPAC_screen_w_protease, primary screen with protease, compound at 5 µM, replicate 1, read-out: Replicate_1) 2.19%; (sheet LOPAC_screen_w_protease, primary screen with protease, compound at 5 µM, replicate 2, read-out: Replicate_2) 3.89%.

In turn, `Cn1c(=O)c2c(nc(C=Cc3cccc(Cl)c3)n2C)n(C)c1=O` [8-(3-Chlorostyryl)caffeine] displayed a mean under setting [7] of 0.7326. Besides, the Replicate_1 under setting [8] stood at 1.9699. Under setting [9], this compound came in with a Replicate_2 of -0.5047.

On to `Cn1c(=O)c2[nH]c(-c3ccc(S(=O)(=O)O)cc3)nc2n(C)c1=O` [8-(p-Sulfophenyl)theophylline], for which the mean under setting [10] worked out at 3.141. Under setting [11], the Replicate_1 is 2.844. Besides, under setting [12], the Replicate_2 was found to be 3.439.

Under setting [10], `Nc1nc2c(nc(Br)n2[C@@H]2O[C@@H]3COP(=O)([O-])O[C@H]3[C@H]2O)c(=O)[nH]1.[Na+]` [8-Bromo-cGMP sodium] displayed a mean of 2.652. The Replicate_1 under setting [11] is reported as 4.1. Under setting [12], the Replicate_2 was determined as 1.204.
